Test results as given in patent publication US4994460A, “Agents for treatment of brain ischemia” (Bristol-Myers Squibb Co., priority 1990, dated 1991).
Structures can show the parent of a compound that is named as a salt. Where two headings read alike, the source gives them in different places.

Legend:
hypoxia-induced death = experiment: Anoxic Nitrogen Test in Rats (survival after 1 min pure N2); assay type: in vivo, male Sprague-Dawley rats; settings: Rattus norvegicus; for ED50: anoxic nitrogen test, 2 hr observation, 95% confidence limits in brackets, read-out: ED50 (19/20 C.L); for responders at 80 mg/kg: 80 mg/kg ip
Text: Most specifically, administration of the compounds of Formula I results in protecting against hypoxia-induced death in an anoxic nitrogen test in rats. This particular test identifies the neuro-protective effects of substances against lethal brain damages produced by a lack of oxygen consumption (anoxia). In this test procedure, control animals exposed for one minute to a pure nitrogen atmosphere will expire because of respiratory failure caused by irreversible damage to the brain respiratory center.
The animals utilized are male Sprague-Dawley rats (200-240 grams) housed four animals per cage in a normal controlled environment with unlimited access to food and water. Usually there are 8 animals per dose, however, 4 animals can be employed to obtain an initial impression of a compound's activity. Animals surviving the anoxic insult are sacrificed via CO2 inhalation following completion of the observation session (2 hr).
[…] The anoxic episode consists of placing up to 4 animals in the sealed test chamber (10" l×10" w×6" h) continuously flushed with pure N2 (4.5 grade) at a flow rate of 3 SCFM for 1 min. Animals are then promptly removed to normal atmosphere and observed for the 2 hour time period. Typically, animals become disoriented within 15 sec which leads into convulsions at 30 to 35 sec after which they remain motionless.
In spite of the fact that after the N2 exposure the heart is still beating, all control animals fail to gasp when removed from the chamber and usually expire within 3 minutes. Drug treated animals, however, still gasp or start gasping after being removed which is a good indication if an animal will survive the N2 exposure (1).
Results are recorded as: [formula] and are statistically evaluated using the Finney Dose Response program for determination of the ED50 and its corresponding 95% confidence limits.
Compounds of the present invention were rated at each dose level tested using the following rating scale:
+=weak activity (up to 25% survival)
++=moderate activity (25-50% survival)
+++=good activity (51-75% survival)
++++=very good activity (76-100%)

[1] = Wauquier et al., Drug Development Research 8/373-380 (1986); cited from earlier work
[2] = tested on: animal models of stroke and brain infarction; settings: Gotti et al., JPET 247/3, 1211-1221 (1988); cited from earlier work
[3] = ip, Table 2, 40 mg/kg ip, read-out: Rating (survival)
[4] = ip, Table 2, read-out: Rating (survival)
[5] = ip, Table 3, 40 mg/kg i.p. 60 minutes prior to anoxia testing, read-out: Anti-ischemic Rating
[6] = ip, 40 mg/kg ip, read-out: Anti-ischemic Rating

Compound `C[C@]12N[C@H](Cc3ccccc31)c1ccccc12` [(+)MK-801, reference compound] has an ED50 (hypoxia-induced death; ip) of 3.1 mg/kg.

`Fc1ccc(SCCCN2CCN(c3ncc(F)cn3)CC2)cc1` [Example 10, 1-[3-(4-Fluorophenylthio)propyl]-4-(5-fluoro-2-pyrimidinyl) piperazine] showed a responders at 40 mg/kg (hypoxia-induced death; Table 2, "^ 40^a" mg/kg ip, given 60 minutes prior to anoxia testing, read-out: Rating (survival)) of less than 25%.

In the case of `Fc1cnc(N2CCN(CCCC3OCCO3)CC2)nc1` [Example 11, 1-[3-(1,3-dioxolan-2-yl)propyl]-4-(5-Fluoro-2-pyrimidinyl) piperazine], the responders at 40 mg/kg (hypoxia-induced death; [3]) is reported as less than 25%.

With `O=C(CCCN1CCN(c2ncc(F)cn2)CC1)c1cccs1` [Example 12, 1-(2-Thienyl)-4-[4-(5-fluoro-2-pyrimidinyl)-1-piperazinyl]butanone] the responders at 40 mg/kg (hypoxia-induced death; [3]) was less than 25%.

Compound `O=C(CCCN1CCN(c2ncc(F)cn2)CC1)c1ccc(F)c2ccccc12` [Example 13, 1-(4-Fluoronaphth-1-yl)-4-[4-(5-fluoro-2-pyrimidinyl)-1-piperazinyl]butanon] has a responders at 40 mg/kg (hypoxia-induced death; [3]) of 25 to 50% and a responders at 80 mg/kg (hypoxia-induced death; [4]) of 76 to 100%.

With `CC(=O)NC(CCCN1CCN(c2ncc(F)cn2)CC1)c1ccc(F)cc1` (centres unmarked) [Example 18, 1-[4-Acetamido-4-(4-fluorophenyl)butyl]-4-(5-fluoro-2-pyrimidinyl)piperazine monohydrochloride] the responders at 40 mg/kg (hypoxia-induced death; [3]) was less than 25%.

Work on `O=C(NC(CCCN1CCN(c2ncc(F)cn2)CC1)c1ccc(F)cc1)c1ccc(F)cc1` (centres unmarked) [Example 19, 1-[4-(4-Fluorobenzamido)-4-(4-fluorophenyl)butyl]-4-(5-fluoro-2-pyrimidinyl)piperazine] yielded a responders at 40 mg/kg (hypoxia-induced death; [3]) of 76 to 100%.

For `O=S(=O)(NC(CCCN1CCN(c2ncc(F)cn2)CC1)c1ccc(F)cc1)c1ccc(F)cc1` (centres unmarked) [Example 20, 1-[4-(4-Fluorophenyl)-4-(4-fluorophenylsulfonamido)butyl]-4-(5-fluoro-2-pyrimidinyl)piperazine], the responders at 80 mg/kg (hypoxia-induced death; [4]) was 76 to 100%.

Work on `O=S(=O)(CCCN1CCN(c2ncc(F)cn2)CC1)c1ccc(F)cc1` [Example 21, 1-[3-(4-Fluorophenylsulfonyl)propyl]-4-(5-fluoro-2-pyrimidinyl)piperazine] yielded a responders at 40 mg/kg (hypoxia-induced death; [3]) of less than 25%.

`OC(CCCN1CCN(c2ncc(F)cn2)CC1)C1CCCCC1` (centres unmarked) [Example 22, 1-Cyclohexyl-4-[4-(5-fluoro-2-pyrimidinyl)-1-piperazinyl]butanol] gave a responders at 80 mg/kg (hypoxia-induced death; [4]) of 51 to 75%.

In the case of `OC(CCCN1CCN(c2ncc(F)cn2)CC1)c1ccc(F)c2ccccc12` (centres unmarked) [Example 23, 1-(4-Fluoronaphth-1-yl)-4-[4-(5-fluoro-2-pyrimidinyl)-1-piperazinyl]butanol], the responders at 100 mg/kg (hypoxia-induced death; ip, Table 2, 100 mg/kg ip, read-out: Rating (survival)) is reported as 76 to 100%.

`O=C(NC(CCCN1CCN(c2ncc(F)cn2)CC1)c1ccc(F)c2ccccc12)c1ccc(F)cc1` (centres unmarked) [Example 26] showed a responders at 40 mg/kg (hypoxia-induced death; [5]) of 25 to 50%.

`Fc1cnc(N2CCN(CCCCc3ccc(F)c4ccccc34)CC2)nc1` [Example 28] gave a responders at 40 mg/kg (hypoxia-induced death; [5]) of 51 to 75%.

Compound `O=S(=O)(NC(CCCN1CCN(c2ncc(F)cn2)CC1)C1CCCCC1)c1ccc(F)cc1` (centres unmarked) [Example 30] has a responders at 40 mg/kg (hypoxia-induced death; [5]) of 25 to 50%.

`Fc1cnc(N2CCN(CCCCC3CCCCC3)CC2)nc1` [Example 31] showed a responders at 40 mg/kg (hypoxia-induced death; [5]) of 25 to 50%.

Compound `OC(CCCN1CCN(c2ncc(F)cn2)CC1)(c1ccc(F)cc1)C1CCCCC1` (centres unmarked) [Example 37, 1-Cyclohexyl-1-(4-fluorophenyl)-4-(4-(5-fluoro-2-pyrimidinyl)-1-piperazinyl)-1-butanol] has a responders at 40 mg/kg (hypoxia-induced death; [6]) of 51 to 75%.

In the case of `O=C(OC(CCCN1CCN(c2ncc(F)cn2)CC1)c1ccc(F)cc1)c1ccc(F)cc1` (centres unmarked) [Example 39, 1-(4-Fluorophenyl)-4-(4-(5-fluoro-2-pyrimidinyl)-1-piperazinyl)-1-butyl 4-fluorobenzoate hydrochloride], the responders at 40 mg/kg (hypoxia-induced death; [6]) is reported as 51 to 75%.

`[N-]=[N+]=NC(CCCN1CCN(c2ncc(F)cn2)CC1)c1ccc(F)c2ccccc12` (centres unmarked) [Example 40, 1-(4-Azido-4-(4-fluoro-1-naphthyl)-1-butyl)-4-(5-fluoro-2-pyrimidinyl)piperazine monohydrochloride] gave a responders at 40 mg/kg (hypoxia-induced death; [6]) of 25 to 50%.

Work on `NC(CCCN1CCN(c2ncc(F)cn2)CC1)c1ccc(F)c2ccccc12` (centres unmarked) [Example 41, 1-(4-Fluoro-1-naphthyl)-4-(4-(5-fluoro-2-pyrimidinyl)-1-piperazinyl) butylamine hydrochloride] yielded a responders at 40 mg/kg (hypoxia-induced death; [6]) of 76 to 100%.

Work on `COC(CCCN1CCN(c2ncc(F)cn2)CC1)c1ccc(F)cc1` (centres unmarked) [Example 42, 1-[4-(4-Fluorophenyl)-4-methoxybutyl]-4-(5-fluoropyrimidin-2-yl) piperazine hydrochloride] yielded a responders at 40 mg/kg (hypoxia-induced death; [6]) of 25 to 50%.

`O=C(NC(CCCN1CCN(c2ncc(F)cn2)CC1)c1ccc(F)cc1)c1ccccc1` (centres unmarked) [Example 43] gave a responders at 40 mg/kg (hypoxia-induced death; [5]) of 25 to 50%.

For `O=C(NC(CCCN1CCN(c2ncc(F)cn2)CC1)c1ccc(F)cc1)c1ccc(F)c2ccccc12` (centres unmarked) [Example 44], the responders at 40 mg/kg (hypoxia-induced death; [5]) was 25 to 50%.

With `O=S(=O)(NC(CCCN1CCN(c2ncc(F)cn2)CC1)c1ccc(F)c2ccccc12)c1ccc(F)cc1` (centres unmarked) [Example 45] the responders at 40 mg/kg (hypoxia-induced death; [5]) was less than 25%.

For `O=C(OC(CCCN1CCN(c2ncc(F)cn2)CC1)c1ccc(F)cc1)c1ccccc1` (centres unmarked) [Example 46], the responders at 40 mg/kg (hypoxia-induced death; [5]) was 25 to 50%.

`Fc1ccc(CCN2CCN(c3ncc(F)cn3)CC2)cc1` [Example 47] showed a responders at 40 mg/kg (hypoxia-induced death; [5]) of less than 25%.

`O=C(CCCN1CCN(c2ncc(F)cn2)CC1)C1CCCCC1` [Example 48] showed a responders at 40 mg/kg (hypoxia-induced death; [5]) of 76 to 100%.

With `O=C(NC(CCCN1CCN(c2ncc(F)cn2)CC1)C1CCCCC1)c1ccc(F)cc1` (centres unmarked) [Example 49] the responders at 40 mg/kg (hypoxia-induced death; [5]) was less than 25%.

For `CN(c1nc2ccccc2s1)C1CCN(CC(O)COc2ccc(F)cc2)CC1` (centres unmarked) [Sabeluzole], the ED50 (hypoxia-induced death; ip) is listed as 4.7 mg/kg, the anticonvulsant properties [1] is listed as “anticonvulsant properties” and the antihypoxic activity [1] is listed as “potent antihypoxic agent”.

For `CC(C(O)c1ccc(O)cc1)N1CCC(Cc2ccccc2)CC1` (centres unmarked) [ifenprodil], the tissue sparing [2] is listed as “effective in tissue sparing”.
